Reference: US20260130395A1, “Water Dispersible Botanical Compositions” (Aquila Black Limited, priority 2021, published 2026)

Experiment: Stability of cannabinoid compounds and Vitamin E components in Beverage 1 (AB White) by LCMSMS
Assay type: physicochemical

Compound: CC(=O)Oc1c(C)c(C)c2c(c1C)CCC(C)(CCC[C@H](C)CCC[C@H](C)CCCC(C)C)O2 (stereo partly drawn) [α-Tocopheryl acetate]
- Stability of Vitamin Es in AB White (stored at 8° C., 0 days): 12.3 µg/mL
- Stability of Vitamin Es in AB White (stored at 8° C., 1 days): 12.04 µg/mL
- Stability of Vitamin Es in AB White (stored at 8° C., 2 days): 12.47 µg/mL
- Stability of Vitamin Es in AB White (stored at 8° C., 3 days): 11.99 µg/mL
- Stability of Vitamin Es in AB White (stored at 8° C., 5 days): 11.61 µg/mL
- Stability of Vitamin Es in AB White (stored at 8° C., 8 days): 12.48 µg/mL
- Stability of Vitamin Es in AB White (stored at 8° C., 9 days): 11.88 µg/mL
- Stability of Vitamin Es in AB White (stored at 8° C., 10 days): 12.13 µg/mL
- Stability of Vitamin Es in AB White (stored at 8° C., 11 days): 11.83 µg/mL
- Stability of Vitamin Es in AB White (stored at 8° C., 12 days): 12.31 µg/mL
- Stability of Vitamin Es in AB White (stored at 8° C., 15 days): 12.42 µg/mL
- Stability of Vitamin Es in AB White (stored at 8° C., 16 days): 11.35 µg/mL
- Stability of Vitamin Es in AB White (stored at 8° C., 17 days): 11.49 µg/mL
- Stability of Vitamin Es in AB White (stored at 8° C., 18 days): 11.83 µg/mL
- Stability of Vitamin Es in AB White (stored at 8° C., 19 days): 12.41 µg/mL
- Stability of Vitamin Es in AB White (stored at 8° C., 22 days): 11.27 µg/mL
- Stability of Vitamin Es in AB White (stored at 8° C., 23 days): 11.93 µg/mL
- Stability of Vitamin Es in AB White (stored at 8° C., 24 days): 12.02 µg/mL
- Stability of Vitamin Es in AB White (stored at 8° C., 25 days): 12.24 µg/mL
- Stability of Vitamin Es in AB White (stored at 8° C., 26 days): 12.03 µg/mL
- Stability of Vitamin Es in AB White (stored at 8° C., 29 days): 11.40 µg/mL
- Stability of Vitamin Es in AB White (stored at 8° C., 30 days): 12.07 µg/mL
- Stability of Vitamin Es in AB White (stored at 8° C., 60 days): 12.05 µg/mL
- Stability of Vitamin Es in AB White (stored at 8° C., 90 days): 11.13 µg/mL
- Stability of Vitamin Es in AB White (stored at 8° C., 120 days): 11.80 µg/mL
- Stability of Vitamin Es in AB White (stored at 8° C., 150 days): 11.89 µg/mL
- Stability of Vitamin Es in AB White (stored at 8° C., 180 days): 11.48 µg/mL
- Stability of Vitamin Es in AB White (stored at 8° C., 210 days): 11.21 µg/mL
- Stability of Vitamin Es in AB White (stored at 8° C., 240 days): 11.06 µg/mL
- Stability of Vitamin Es in AB White (stored at 8° C., 270 days): 11.21 µg/mL
- Stability of Vitamin Es in AB White (stored at 8° C., 300 days): 11.37 µg/mL
- Stability of Vitamin Es in AB White (stored at 8° C., 330 days): 11.28 µg/mL
- Stability of Vitamin Es in AB White (stored at 8° C., 360 days): 11.12 µg/mL
- Stability of Vitamin Es in AB White (stored at 8° C., 390 days): 11.00 µg/mL
- Stability of Vitamin Es in AB White (stored at 8° C., 420 days): 11.06 µg/mL
- Stability of Vitamin Es in AB White (stored at 8° C., 450 days): 10.89 µg/mL
- Stability of Vitamin Es in AB White (stored at 8° C., 480 days): 10.76 µg/mL
- Stability of Vitamin Es in AB White (stored at 8° C., 510 days): 10.76 µg/mL
- Stability of Vitamin Es in AB White (stored at 8° C., 540 days): 10.49 µg/mL
- Stability of Vitamin Es in AB White (stored at 8° C., 570 days): 10.42 µg/mL
- Stability of Vitamin Es in AB White (stored at 21-25° C., 0 days): 12.3 µg/mL
- Stability of Vitamin Es in AB White (stored at 21-25° C., 1 days): 12.2 µg/mL
- Stability of Vitamin Es in AB White (stored at 21-25° C., 2 days): 12.3 µg/mL
- Stability of Vitamin Es in AB White (stored at 21-25° C., 3 days): 11.8 µg/mL
- Stability of Vitamin Es in AB White (stored at 21-25° C., 5 days): 12.0 µg/mL
- Stability of Vitamin Es in AB White (stored at 21-25° C., 8 days): 12.4 µg/mL
- Stability of Vitamin Es in AB White (stored at 21-25° C., 9 days): 12.2 µg/mL
- Stability of Vitamin Es in AB White (stored at 21-25° C., 10 days): 11.8 µg/mL
- Stability of Vitamin Es in AB White (stored at 21-25° C., 11 days): 11.7 µg/mL
- Stability of Vitamin Es in AB White (stored at 21-25° C., 12 days): 11.6 µg/mL
- Stability of Vitamin Es in AB White (stored at 21-25° C., 15 days): 11.4 µg/mL
- Stability of Vitamin Es in AB White (stored at 21-25° C., 16 days): 12.3 µg/mL
- Stability of Vitamin Es in AB White (stored at 21-25° C., 17 days): 11.2 µg/mL
- Stability of Vitamin Es in AB White (stored at 21-25° C., 18 days): 11.9 µg/mL
- Stability of Vitamin Es in AB White (stored at 21-25° C., 19 days): 11.4 µg/mL
- Stability of Vitamin Es in AB White (stored at 21-25° C., 22 days): 11.3 µg/mL
- Stability of Vitamin Es in AB White (stored at 21-25° C., 23 days): 11.9 µg/mL
- Stability of Vitamin Es in AB White (stored at 21-25° C., 24 days): 11.8 µg/mL
- Stability of Vitamin Es in AB White (stored at 21-25° C., 25 days): 11.3 µg/mL
- Stability of Vitamin Es in AB White (stored at 21-25° C., 26 days): 11.6 µg/mL
- Stability of Vitamin Es in AB White (stored at 21-25° C., 29 days): 12.1 µg/mL
- Stability of Vitamin Es in AB White (stored at 21-25° C., 30 days): 12.1 µg/mL
- Stability of Vitamin Es in AB White (stored at 21-25° C., 60 days): 12.1 µg/mL
- Stability of Vitamin Es in AB White (stored at 21-25° C., 90 days): 12.0 µg/mL
- Stability of Vitamin Es in AB White (stored at 21-25° C., 120 days): 11.4 µg/mL
- Stability of Vitamin Es in AB White (stored at 21-25° C., 150 days): 11.9 µg/mL
- Stability of Vitamin Es in AB White (stored at 21-25° C., 180 days): 11.2 µg/mL
- Stability of Vitamin Es in AB White (stored at 21-25° C., 210 days): 11.1 µg/mL
- Stability of Vitamin Es in AB White (stored at 21-25° C., 240 days): 10.8 µg/mL
- Stability of Vitamin Es in AB White (stored at 21-25° C., 270 days): 11.0 µg/mL
- Stability of Vitamin Es in AB White (stored at 21-25° C., 300 days): 11.2 µg/mL
- Stability of Vitamin Es in AB White (stored at 21-25° C., 330 days): 11.3 µg/mL
- Stability of Vitamin Es in AB White (stored at 21-25° C., 360 days): 10.7 µg/mL
- Stability of Vitamin Es in AB White (stored at 21-25° C., 390 days): 10.8 µg/mL
- Stability of Vitamin Es in AB White (stored at 21-25° C., 420 days): 10.9 µg/mL
- Stability of Vitamin Es in AB White (stored at 21-25° C., 450 days): 10.6 µg/mL
- Stability of Vitamin Es in AB White (stored at 21-25° C., 480 days): 10.3 µg/mL
- Stability of Vitamin Es in AB White (stored at 21-25° C., 510 days): 10.4 µg/mL
- Stability of Vitamin Es in AB White (stored at 21-25° C., 540 days): 10.4 µg/mL
- Stability of Vitamin Es in AB White (stored at 21-25° C., 570 days): 10.2 µg/mL
